In ChEMBL document CHEMBL4673286, “Selective recognition of DNA parallel G-quadruplexes by 3,8a-disubstituted indolizinones” (Bioorg Med Chem, 2021):
Activity calls are given as the source filed them. No cut-off for these calls is given here.

Legend:
MCF7 = assay: Cytotoxicity against human MCF7 cells assessed as reduction in cell viability at 10 uM incubated for 72 hrs by MTT assay relative to control; type: functional
HT-1080 = assay: Cytotoxicity against human HT-1080 cells assessed as reduction in cell viability at 10 uM incubated for 72 hrs by MTT assay relative to control; type: functional
Quadruplex DNA [1] = assay: Binding affinity to c-myc G-quadruplex DNA (unknown origin) in PBS buffer 40 mM K+ at 5 uM by spectrofluorimetric analysis; type: nucleic-acid assay
Quadruplex DNA [2] = assay: Effect on c-myc G-quadruplex DNA (unknown origin) configuration in PBS buffer 40 mM K+ at 5 uM by spectropolarimeter; type: ADME, nucleic-acid assay
HeLa = assay: Cytotoxicity against human HeLa cells assessed as reduction in cell viability at 10 uM incubated for 72 hrs by MTT assay relative to control; type: functional
Quadruplex DNA [3] = assay: Effect on c-myc G-quadruplex DNA (unknown origin) configuration in water at 5 uM spectropolarimeter; type: ADME, nucleic-acid assay; conditions: buffer
DNA = assay: Binding affinity to ds26 DNA sequence (unknown origin) by spectrofluorimetric analysis; type: nucleic-acid assay
[4] = Binding affinity to TBA DNA sequence (unknown origin) by spectrofluorimetric analysis
[5] = Drug localization in nucleus of human HeLa cells at 10 uM incubated for 4 hrs in presence of urea by propidium iodide staining based by confocal microscopy; type: ADME
[6] = Drug localization in cytoplasm of human HeLa cells at 10 uM incubated for 4 hrs by propidium iodide staining based by confocal microscopy; type: ADME
[7] = Drug localization in human HeLa cells at 10 uM incubated for 4 hrs by MitoTracker Deep Red and Lyso-Tracker Red DND-99 staining based by confocal microscopy; type: ADME, cell-based
[8] = Drug localization in nucleus of human HeLa cells at 10 uM incubated for 4 hrs by propidium iodide staining based by confocal microscopy; type: ADME
[9] = Binding affinity to dx12ab DNA sequence (unknown origin) by spectrofluorimetric analysis
[10] = Drug localization in nucleus of human MCF7 cells at 10 uM incubated for 4 hrs by propidium iodide staining based by confocal microscopy; type: ADME, cell-based; conditions: mcf7, 4 h
[11] = Drug localization in nucleus of human MCF7 cells at 10 uM incubated for 4 hrs in presence of urea by propidium iodide staining based by confocal microscopy; type: ADME, cell-based; conditions: mcf7, 4 h
[12] = Drug localization in cytoplasm of human MCF7 cells at 10 uM incubated for 4 hrs by propidium iodide staining based by confocal microscopy; type: ADME, cell-based; conditions: mcf7, 4 h
Quadruplex DNA [13] = assay: Binding affinity to c-myc G-quadruplex DNA (unknown origin) in PBS buffer (40 mM K+, pH 7.4) by spectrofluorimetric analysis; type: nucleic-acid assay

| SMILES | inhibition at 10 µM (MCF7) [%] | inhibition at 10 µM (HT-1080) [%] | Activity (Quadruplex DNA [1]) | Activity (Quadruplex DNA [2]) | inhibition at 10 µM (HeLa) [%] | Activity (Quadruplex DNA [3]) | K (DNA) | K [4] | Drug uptake [5] | Drug uptake [6] | Drug uptake [7] | Drug uptake [8] | K [9] | Drug uptake [10] | Drug uptake [11] | Drug uptake [12] | K (Quadruplex DNA [13]) |
| --- | --- | --- | --- | --- | --- | --- | --- | --- | --- | --- | --- | --- | --- | --- | --- | --- | --- |
| O=C1C=C(c2ccc3ccccc3c2)N2C=CC=CC12C(F)(F)F (stereo not given) | -11.9 | 2.9 | Active | Not Active | -1.3 | Not Active |  |  |  |  |  |  |  |  |  |  |  |
| O=c1[nH]cc(F)c(=O)[nH]1 [FLUOROURACIL] | 41.9 | 65.3 |  |  | 44 |  |  |  |  |  |  |  |  |  |  |  |  |
| O=C1C=C(c2ccc3ccccc3c2)N2C=CC=CC12c1ccccn1 (stereo not given) | 24.3 | 30.4 | Active | Not Active | 11.1 | Not Active | inactive | inactive | Active | Active | Active | Active | inactive | Active | Active | Active |  |
| O=C1C=C(c2ccccn2)N2C=CC=CC12c1ccccn1 (stereo not given) | 7.9 | 8.5 | Active | Not Active | 3.7 | Not Active |  |  |  |  |  |  |  |  |  |  |  |
| O=C1C=C(c2ccc([N+](=O)[O-])cc2)N2C=CC=CC12c1ccccn1 (stereo not given) | 12.5 | -4.2 | Active | Not Active | 2.9 | Not Active |  |  |  |  |  |  |  |  |  |  | inactive |
| O=C1C=C(c2ccc(Cl)cc2)N2C=CC=CC12c1ccccn1 (stereo not given) | 4.7 | 15.6 | Active | Not Active | 16.6 | Not Active |  |  |  |  |  |  |  |  |  |  |  |
| O=C1C=C(c2cccnc2)N2C=CC=CC12c1ccccn1 (stereo not given) | 16.5 | 30.3 | Active | Not Active | 3 | Not Active |  |  |  |  |  |  |  |  |  |  |  |
| COc1ccc(C2=CC(=O)C3(c4ccccn4)C=CC=CN23)cc1 (stereo not given) | 0.6 | 46.1 | Active | Not Active | 3.2 | Not Active |  |  |  |  |  |  |  |  |  |  |  |
| O=C1C=C(c2ccc(-c3ccccc3)cc2)N2C=CC=CC12c1ccccn1 (stereo not given) | 14.3 | 32.2 | Active | Not Active | 5.7 | Not Active |  |  |  |  |  |  |  |  |  |  |  |
| O=C1C=C(c2ccncc2)N2C=CC=CC12c1ccccn1 (stereo not given) | 19.3 | 1.8 | Active | Not Active | 5.9 | Not Active |  |  |  |  |  |  |  |  |  |  |  |
| O=C1C=C(c2ccccc2)N2C=CC=CC12C(F)(F)F (stereo not given) | 18.7 | 15.9 | Active | Not Active | -4.7 | Not Active |  |  |  |  |  |  |  |  |  |  | inactive |
